No end group written: not given here. *: point of attachment. Palmitoyl = CCCCCCCCCCCCCCCC(=O)*
Key:
human MNs [1] = experiment: Tandem mass spectrometry and gene ontology (GO) analysis of proteins differentially expressed in MNs cultured on A2G2 IKVAV PA vs. laminin coated surfaces; format: cell-based; conditions: A2G2 condition vs. laminin; 21 out of the 58 GO terms of Ho et al., 2016 (FIG. 31A)
Source text: FIGS. 31A-31C Assessment of MN maturation through gene ontology (GO) analysis of proteins differentially expressed in MNs cultured on A2G2 IKVAV PA and laminin coated surfaces. Tandem mass spectrometry analysis uncovered differentially expressed proteins between MNs plated on […] surfaces, that are associated with GO terms that have been directly linked to human MN maturation (Ho et al., 2016). (FIG. 31A) From the differentially expressed proteins in A2G2 condition, 21 out of the 58 (36%) GO terms associated with maturation of human MNs were identified. […] Horizontal bar plots display the p-values of the MN maturation related GO terms identified in the protein data set. Pie charts represent the percentage of GO terms obtained in this study compared to the previously described GO terms associated with MN maturation (Ho et al., 2016).
Motor neurons (MN) differentiation: At 70% confluency, iPSC cultures were dissociated using Accutase and plated at a density of 10^5 cells/cm^2 with 10 μM ROCK inhibitor (Y-27632, DNSK International) in mTeSR1. Next day (day 0), media was replaced with N2B27 medium (50% DMEM:F12, 50% Neurobasal, supplemented with NEAA, Glutamax, N2 and B27; Gibco, Life Technologies) containing 10 μM SB431542 (DNSK International), 100 nM LDN-193189 (DNSK International), 1 μM Retinoic Acid (RA, Sigma) and 1 μM of Smoothened-Agonist (SAG, DNSK International). […]

human MNs [2] = experiment: Patch-electrode recording of action potentials from human MNs grown on A2G2 and laminin matrices; format: cell-based; conditions: MNs grown on A2G2 compared with laminin matrices, day 48-49 (FIG. 4L)
Protocol: Motor neurons (MN) differentiation: At 70% confluency, iPSC cultures were dissociated using Accutase and plated at a density of 10^5 cells/cm^2 with 10 μM ROCK inhibitor (Y-27632, DNSK International) in mTeSR1. Next day (day 0), media was replaced with N2B27 medium (50% DMEM:F12, 50% Neurobasal, supplemented with NEAA, Glutamax, N2 and B27; Gibco, Life Technologies) containing 10 μM SB431542 (DNSK International), 100 nM LDN-193189 (DNSK International), 1 μM Retinoic Acid (RA, Sigma) and 1 μM of Smoothened-Agonist (SAG, DNSK International). Culture medium was daily changed until day 6, then was switched to N2B27 medium supplemented with 1 μM RA, 1 μM SAG, 5 μM DAPT (DNSK International) and 4 μM SU5402 (DNSK International). Cells were fed daily until day 14, when MNs were dissociated using TrypLE Express (Gibco, Life Technologies) supplemented with DNase I (Worthington) and plated onto pre-coated poly-D-Lysine/laminin or the distinct IKVAV-coated surfaces. MNs were feed 3 times a week with neurobasal medium (NBM: NEAA, Glutamax, N2 and B27) supplemented with Ascorbic acid (0.2 μg/ml; Sigma-Aldrich), BDNF, CNTF and GDNF (10 ng/mL, R&D systems) and 1% fetal bovine serum (FBS).

“C16A2G2E4GIKVAV (Palmitoyl-AAGGEEEEGIKVAV) [IKVAV peptide amphiphile with A2G2 structural segment]” was tested, and the “GO terms associated with maturation of human MNs identified from the differentially expressed proteins” value (human MNs [1]) was 36%, the action potential amplitude (human MNs [2]) was “significantly larger amplitude” and the “action potential rates of rise and fall” value (human MNs [2]) was “faster rates of rise and fall”.
